Measured values as given in patent publication US20260248763A1 (BIO GENUINE (SHANGHAI) BIOTECH CO., LTD, priority 2023, published 2026).

biological target: T1, OTR (Homo sapiens, UniProt P30559); assay: Ca2+ mobilization in cells stably expressing OTR (FLIPR, antagonist mode); type: cell-based; conditions: OTR/HEK293 stably transfected cell line
T1 construct: expressed in transfected cells; host or cells: OTR/HEK293 stably transfected cell line
T1 sequence (P30559 1-389): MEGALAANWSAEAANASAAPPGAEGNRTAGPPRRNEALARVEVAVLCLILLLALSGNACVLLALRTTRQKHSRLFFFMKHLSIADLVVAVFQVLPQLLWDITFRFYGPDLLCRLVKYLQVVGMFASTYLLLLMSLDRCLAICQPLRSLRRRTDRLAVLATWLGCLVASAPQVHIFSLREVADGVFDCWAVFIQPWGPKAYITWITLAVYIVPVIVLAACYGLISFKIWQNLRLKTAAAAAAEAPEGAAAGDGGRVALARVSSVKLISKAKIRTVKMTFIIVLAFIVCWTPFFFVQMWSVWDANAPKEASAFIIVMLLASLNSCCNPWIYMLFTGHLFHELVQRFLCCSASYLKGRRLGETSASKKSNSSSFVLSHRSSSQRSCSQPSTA
From the text: Test Example 1. Determination of the Effect of the Compound of the Present Disclosure on Ca^2+ Mobilization in Cells Stably Expressing OTR
To measure the antagonistic effect of the compound of the present disclosure on OTR activity expressed in the OTR/HEK293 stably transfected cell line.
• DMEM medium (Invitrogen, 11965) • F12 medium (Invitrogen, 11765) • Fetal bovine serum (Excell, FSP500) • Geneticin (Invitrogen, 10131) • Penicillin/Streptomycin (Invitrogen, SV30010) • Fluo-4 Direct kit (Invitrogen, F10471) • 384-well cell plate (Greiner, 781090) • 384-well compound plate (Greiner, 781280)
• FLIPR instrument (Molecular Device) • EHCO instrument (Labcyte) • Cell counter (Beckman, Vi-cell XR)
The cultured cells were washed twice with pre-heated DPBS and digested with appropriate amount of trypsin at 37° C. for 1 minute, and then appropriate amount of culture medium was added to terminate digestion. The cells were centrifuged at 1000 rpm for 5 minutes. The supernatant was gently discarded without disturbing the cell pellet at the bottom. The cells were resuspended in culture medium and 1 mL was taken out for cell counting and viability assessment using Vi-CELL™. The cells were diluted to 1×10^6 cells/mL (20,000 cells/20 μL) with culture medium, seeded into a 384-well cell plate and incubated at 37° C. with 5% CO2 for 16-20 h.
Formulation of 250 mM Probenecid solution: according to the kit instructions, 1 mL of FLIPR buffer salt solution was added to 77 mg of probenecid, prepared fresh just before use. Formulation of Fluo-4 Direct™ (2×, 8 μM) loading buffer: according to the kit instructions, the required amount of Fluo-4 Direct™ was taken out and thawed in advance, 10 mL of FLIPR buffer salt solution and 0.2 mL of 250 mM Probenecid solution were added to each tube, and the mixture was vortexed in the dark for >5 minutes, prepared fresh just before use.
Preparation of agonist reference compound plate: the agonist was diluted 3-fold in 10 points using ECHO, and 750 nL was transferred to the corresponding compound plate using ECHO.
Preparation of reference and test compound plates: the test compound was diluted 3-fold in 10 points with ECHO, and 900 nL was transferred to the corresponding compound plate; the reference compound was diluted 3-fold in 10 points with assay buffer salt solution, and 30 μL was transferred to the compound plate.
30 μL of assay buffer salt solution was added to the corresponding compound plate, and the mixture was centrifuged at 1000 rpm for 1 minute.
The cell plate prepared the day before was taken out of the incubator, and 20 μL of 2×Fluo-4 Direct™ buffer was added to each well, with a total volume of 40 μL.
The plate was incubated in an incubator at 37° C. with 5% CO2 for 50 minutes, and then placed at room temperature for 10 minutes.
The compound plate, cell plate, and pipette tips were placed into the instrument.
For the agonist reference compound plate: the FLIPR instrument software was run, 10 μL of the pre-determined concentration of agonist reference compound was added to the cell plate following the preset protocol, and the fluorescence signal was read. After reading, the data were exported to calculate the EC80 for each cell line, and the agonist at 6×EC80 concentration was prepared.
For the compound plate: the FLIPR instrument software was run, 10 μL of the pre-determined concentration of test compound and the reference compound were added to the cell plate following the preset protocol, and the fluorescence signal was read. 10 μL of the reference compound agonist at 6×EC80 concentration was added to the cell plate, and the fluorescence signal was read. For antagonist detection of the compound, the data were exported using the “Max-Min” and “Read 1 to Maximum allowed” methods in the software, and the data were fitted using Prism.

| IC50 [nM] | SMILES |
| --- | --- |
| 1110 | CO/N=C1\C[C@@H](CO)N(C(=O)c2ccc(-c3cccc(C)c3C#N)cc2)C1 [Example A0144, (S, E)-4′-(2-(Hydroxymethyl)-4-(methoxyimino)pyrrolidine-1-carbonyl)-3-methyl-[1,1′-biphenyl]-2-carbonitrile] |
| 384 | CO/N=C1/C[C@@H](CO)N(C(=O)c2ccc(-c3cccc(C#N)c3C)s2)C1 [Example A0212, 3-(5-[(2S, 4Z)-2-(Hydroxymethyl)-4-(methoxyimino)pyrrolidine-1-carbonyl]thien-2-yl)-2-methylbenzonitrile] |
| 57.8 | CO/N=C1\C[C@@H](CO)N(C(=O)c2ccc(-c3cccc(C#N)c3C)c(OC)c2)C1 [Example A0248, (S,E)-4′-(2-(Hydroxymethyl)-4-(methoxyimino)pyrrolidine-1-carbonyl)-2′-methoxy-2-methyl-[1,1′-biphenyl]-3-carbonitrile] |
| 1050 | CO/N=C1\CCN(C(=O)c2ccc(-c3cccc(C#N)c3C)cc2)[C@H](CO)C1 [Example A0226, (S,E)-4′-(2-(Hydroxymethyl)-4-(methoxyimino)piperidine-1-carbonyl)-2-methyl-[1,1′-biphenyl]-3-carbonitrile] |
| 432 | CNC(=O)[C@@H]1C/C(=N/OC)CN1C(=O)c1ccc(-c2cccc(C#N)c2C)cc1 [Example A0228, (S, Z)-1-(3′-Cyano-2′-methyl-[1,1′-biphenyl]-4-carbonyl)-4-(methoxyimino)-N-methylpyrrolidine-2-carboxamide] |
| 647 | CO/N=C1/C[C@@H](CO)N(C(=O)c2ccc(-c3cccc(C)c3C#N)cc2)C1 [Example A0130, (S, Z)-4′-(2-(Hydroxymethyl)-4-(methoxyimino)pyrrolidine-1-carbonyl)-3-methyl-[1,1′-biphenyl]-2-carbonitrile] |
| 161 | CO/N=C1/C[C@@H](CO)N(C(=O)c2ccc(-c3cccc(C)c3C)c(C(F)(F)F)n2)C1 [Example C0085, (S, Z)-(5-(2,3-Dimethylphenyl)-6-(trifluoromethyl)pyridin-2-yl)(2-(hydroxymethyl)-4-(methoxyimino)pyrrolidin-1-yl)methanone] |
| 575 | CO/N=C1\CN(C(=O)c2ccc(-c3ccccc3C)cc2)C2(COC2)C1 [Example A0041, (Z)-(7-(Methoxyimino)-2-oxa-5-azaspiro[3.4]octan-5-yl)(2′-methyl-[1, 1′-biphenyl]-4-yl)methanone] |
| 202 | CO/N=C1/C[C@@H](CO)N(C(=O)c2ccc(-c3cccc(C#N)c3C)c3c2OCC(=O)N3C)C1 [Example A0163, (S, Z)-3-(8-(2-(Hydroxymethyl)-4-(methoxyimino)pyrrolidine-1-carbonyl)-4-methyl-3-oxo-3,4-dihydro-2H-benzo[b][1,4]oxazin-5-yl)-2-methylbenzonitrile] |
| 23.5 | CO/N=C1/C[C@@H](CO)N(C(=O)c2ccc(-c3cccc(C)c3C)c(OC3COC3)c2)C1 [Example A0147, (S, Z)-(2′, 3′-Dimethyl-2-(oxetan-3-yloxy)-[1, 1′-biphenyl]-4-yl)(2-(hydroxymethyl)-4-(methoxyimino)pyrrolidin-1-yl)methanone] |
| 1820 | CO/N=C1/C[C@@H](CO)N(C(=O)c2cnc(-c3ccccc3C)s2)C1 [Example C0030, (S, Z)-(2-(Hydroxymethyl)-4-(methoxyimino)pyrrolidin-1-yl)(2-(o-tolyl)thiazol-5-yl)methanone] |
| 2330 | CO/N=C1\C[C@@H](CNC(C)=O)N(C(=O)c2ccc(-c3ccccc3C)cc2)C1 [Example C0003, (S, E)-N-((4-(Methoxyimino)-1-(2′-methyl-[1,1′-biphenyl]-4-carbonyl)pyrrolidin-2-yl)methyl)acetamide] |
| 59.9 | CO/N=C1/C[C@@H](CO)N(C(=O)c2ccc(-c3cc(F)cc(C#N)c3C)c3c2OCO3)C1 [Example C0144, (S,Z)-5-Fluoro-3-(7-(2-(hydroxymethyl)-4-(methoxyimino)pyrrolidine-1-carbonyl)benzo[d][1,3]dioxol-4-yl)-2-methylbenzonitrile] |
| 1740 | CON=C1C[C@@H](CNC(C)=O)N(C(=O)c2ccc(-c3ccccc3C)cc2)C1 (single isomer, unassigned) [Example C0006] |
| 1260 | CO/N=C1/C[C@@H](CO)N(C(=O)c2ccc(-c3cc(C#N)ccc3C)cc2)C1 [Example C0095, (S, Z)—4′-(2-(Hydroxymethyl)-4-(methoxyimino)pyrrolidine-1-carbonyl)-6-methyl-[1,1′-biphenyl]-3-carbonitrile] |
| 237 | CO/N=C1/C[C@@H](CO)N(C(=O)c2cc(C(F)(F)F)c(-c3cccc(C)c3C)cn2)C1 [Example C0071, (S, Z)-(5-(2,3-Dimethylphenyl)-4-(trifluoromethyl)pyridin-2-yl)(2-(hydroxymethyl)-4-(methoxyimino)pyrrolidin-1-yl)methanone] |
| 228 | CO/N=C1/C[C@@H](CO)N(C(=O)c2ccc3c(c2)OCCc2c(C#N)cccc2-3)C1 [Example C0146, (S, Z)-3-(2-(Hydroxymethyl)-4-(methoxyimino)pyrrolidine-1-carbonyl)-6,7-dihydrodibenzo[b,d]oxepine-8-carbonitrile] |
| 17.1 | COCCOc1cc(C(=O)N2C/C(=N\OC)C[C@H]2CO)ccc1-c1cccc(C)c1C [Example A0149, (S, Z)-(2-(Hydroxymethyl)-4-(methoxyimino)pyrrolidin-1-yl)(2-(2-methoxyethoxy)-2′, 3′-dimethyl-[1,1′-biphenyl]-4-yl)methanone] |
| 545 | CO/N=C1\C[C@@H](COCCO)N(C(=O)c2ccc(-c3ccccc3C)cc2)C1 [Example C0018, (S, E)-(2-((2-Hydroxyethoxy)methyl)-4-(methoxyimino)pyrrolidin-1-yl)(2′-methyl-[1,1′-biphenyl]-4-yl)methanone] |
| 48.3 | CON=C1CC(C(=O)NCC(O)c2ccccc2)N(C(=O)c2ccc(-c3cccc(C#N)c3C)cc2)C1 (single isomer, unassigned) [Example A0233, (25, Z)-1-(3′-Cyano-2′-methyl-[1,1′-biphenyl]-4-carbonyl)-N-(2-hydroxy-2-phenethyl)-4-(methoxyimino)pyrrolidine-2-carboxamide] |
| 815 | CO/N=C1/C[C@@H](CO)N(C(=O)c2ncc(-c3cccc(C)c3C)s2)C1 [Example C0097, (S, Z)-(5-(2,3-Dimethylphenyl)thiazol-2-yl)(2-(hydroxymethyl)-4-(methoxyimino)pyrrolidin-1-yl)methanone] |
| 140 | CO/N=C1/C[C@@H](COCCO)N(C(=O)c2ccc(-c3ccccc3C)cc2)C1 [Example C0017, (S, Z)-(2-((2-Hydroxyethoxy)methyl)-4-(methoxyimino)pyrrolidin-1-yl)(2′-methyl-[1,1′-biphenyl]-4-yl)methanone] |
| 1480 | CO/N=C1/C[C@@H](CO)N(C(=O)c2ccc(-c3cccc(C)c3C)c(=O)n2C)C1 [Example C0103, (S,Z)-3-(2,3-Dimethylphenyl)-6-(2-(hydroxymethyl)-4-(methoxyimino)pyrrolidine-1-carbonyl)-1-methylpyridin-2(1H)-one] |
| 82.9 | CO/N=C1\C[C@@H](CO)N(C(=O)c2ccc(-c3cccc(C#N)c3C)cc2)C1 [Example C0057, (S, E)-4′-(2-(Hydroxymethyl)-4-(methoxyimino)pyrrolidine-1-carbonyl)-2-methyl-[1,1′-biphenyl]-3-carbonitrile] |
